What was measured:
[1] = Long-term toxicity experiment (28 days) in dogs; format: in vivo
Experimental: Experiment Animals: rats, male, 6-8 weeks of age, body weight: 180-250 g; dogs, male, about 24 months, body weight: 7-10 kg.
Preparation of sample: in rat's experiments the mixed formulation powder of the compound Ie was formulated into 0.1, 0.3 and 1 mg/mL homogeneous suspension for use; administration route: oral administration; […]. In dog's experiments the tablets of compound Ie were fed to dogs. […].
Sample collection: blood was collected at the time points of 1, 10, 20 and 28 days respectively, about 120-200 μL whole blood was collected from 3 animals at each time point. Blood was collected at 1 h, 4 h, 8 h and 24 h after administration.
Sample analysis: the collected samples were detected by LC-MS/MS, and the instrument model was SHIMADZU20 A-API4000.
Pharmacokinetic data analysis: the obtained plasma concentration data were fitted and calculated using WinNolin according to non-compartment model.

[2] = tested on: H1734; assay: Inhibition of tumor cells, MTS method; format: cell-based; conditions: Homo sapiens, NCI-H1734, 72 hours
Experimental: (§1) (1) Compounds: in vitro studies the test compounds was dissolved in 100% DMSO and diluted until the final concentration of DMSO was 0.1%. The 0.1% (v/v) DMSO was added into culture medium as solvent control. 9 concentration gradients were tested and each gradient was repeated twice. (2) Tumor cell lines: the tumor cell lines were cultivated in RPMI10 culture medium containing 10% fetal calf serum in incubator at 37° C. in a 5% CO2 air incubator. The tested tumor cell lines were: BT474, MDA-MB-231, SK-Br-3, A431, H292, H1975, HCC827, A549, H1650 and H1734. (3) MTS method: cells were seeded into 96-well plate to give a density of about 3000 cells per well, and incubated overnight in a humidified incubator at 37° C. In the next day, the test compounds were added to the wells and further incubated for 72 hours. The cell activity was detected using MTS. IC50 was calculated (the concentration of a compound that is required for 50% inhibition of the cell growth versus the DMSO control group, using nonlinear regression analysis of software GraphPad Prism). […] In a 96-well plate, each test compound was tested at 9 dosage concentrations and each dosage was made in triplicate. Samples were added in 100 μL/well. Cell control and negative control wells contained diluents instead of compounds. Except the negative control well, 100 μL cell suspension of complete medium was added into each test well, wherein corresponding cell numbers were included to assure that the cells in cell control well just cover the bottom of the well as the required incubation time was reached. The plate was incubated in a CO2 incubator at 37° C. for 48 hours. The liquid in test wells was removed by pipetting. 100 μL CCK-8 (Cell counting Kit-8, purchased from DOJINDO Molecular Technologies) detection liquid (containing 10% CCK-8, 5% FBS corresponding medium) was added into each test well, then the plate was incubated in a CO2 incubator under at 37° C. for 3 hours. OD value was detected by ELIASA at A450 nm. Cell viability percentage (%)=(O.D. test compound-O.D. blank)/(O.D. control-O.D. blank)×100. Mean value was calculated for each 3 repeated wells, and IC50 was calculated using nonlinear regression (fitted curve) data analysis method.

[3] = tested on: A549; assay: Inhibition of tumor cells, MTS method; format: cell-based; conditions: Homo sapiens, 72 hours
Experimental: as §1

[4] = tested on: A431; assay: Inhibition of tumor cells, MTS method; format: cell-based; conditions: Homo sapiens, A-431, 72 hours
Experimental: as §1

[5] = tested on: H1650; assay: Inhibition of tumor cells, MTS method; format: cell-based; conditions: Homo sapiens, NCI-H1650, 72 hours
Experimental: as §1

[6] = tested on: H1975; assay: Inhibition of tumor cells, MTS method; format: cell-based; conditions: Homo sapiens, NCI-H1975, 72 hours
Experimental: as §1

[7] = tested on: BT474; assay: Inhibition of tumor cells, MTS method; format: cell-based; conditions: Homo sapiens, BT-474, 72 hours
Experimental: as §1

[8] = tested on: HCC827; assay: Inhibition of tumor cells, MTS method; format: cell-based; conditions: Homo sapiens, 72 hours
Experimental: as §1

[9] = tested on: H292; assay: Inhibition of tumor cells, MTS method; format: cell-based; conditions: Homo sapiens, NCI-H292, 72 hours
Experimental: as §1

[10] = tested on: SK-Br-3; assay: Inhibition of tumor cells, MTS method; format: cell-based; conditions: Homo sapiens, 72 hours
Experimental: as §1

[11] = tested on: H1975 human non-small cell lung cancer tumor cells; assay: Transplanted tumor in nude mice, initial H1975 test; format: in vivo, nude mice (BALB/c)
Experimental: H1975 human non-small cell lung cancer tumor cells were inoculated into 18 nude mice (BALB/c, male, 5-6 weeks of age), and when the mean tumor volume reaches 150 mm^3 the nude mice were randomized into three groups, including: control group (5 nude mice), 20 mg compound Ie/kg/day dose group (8 nude mice) and 75 mg Gefitinib/kg/day (5 nude mice). Test compounds were continuously administrated orally for 21 days. Tumor size and body weight of nude mice were recorded twice weekly from the first day of administration. […] was calculated using the formula (1×w^2), wherein 1 and w respectively represents the maximum and minimum size in each measurement. The change relation of mean tumor volume with the days after tumor transplantation was graphed according to the calculation results.

Compound: CN(C)C/C=C/C(=O)Nc1cc2c(Nc3ccc(F)c(Cl)c3)ncnc2cc1OC(F)F [Compound Ie]
- toxicity reaction ([1]; dog, in vivo, 1 mg/kg): No toxicity reaction
- toxicity reaction ([1]; dogs, 5 mg/kg, 28 days, reaction of Afatinib group greater than compound Ie group): toxicity reactions
- IC50 [2]: 0.539 µM
- IC50 [3]: 3.72 µM
- IC50 [4]: 0.652 µM
- IC50 [5]: 3.24 µM
- IC50 [6]: 0.8 µM
- IC50 [7]: 0.034 µM
- IC50 [8]: 0.002 µM
- IC50 [9]: 2.65 µM
- IC50 [10]: 0.23 µM
- T/C % ([11]; H1975 tumor model, 20 mg compound Ie/kg/day orally for 21 days): 59%
- therapeutic effect on H1975 tumor model ([11]; compound Ie 20 mg/kg/day, Gefitinib 75 mg/kg/day, orally for 21 days): good therapeutic effect

From US20150065709A1, “Aminoquinazoline Derivative And Use Thereof In Preparing Anti-Malignant Tumor Medicament” (METABOMICS, INC, priority 2012, published 2015)
